Test results reported in patent US20230270112A1, “A METHOD OF DI[…] GASEOUS ENVIRONMENT, A LIQUID, OR A SOLID SURFACE” (priority 2020, published 2023).
Like-named read-outs stand apart in the source and are kept apart here.

Key:
[1] = system: herpes simplex virus serotype two (HSV-2); assay: Titration by TCID50 assay (incl. guest-host chemistry assay); assay type: cell-based; conditions: mixed with the virus for 5 minutes, FIG. 3a
[2] = system: herpes simplex virus serotype two (HSV-2); assay: DNA exposure assay; conditions: FIG. 6
[3] = system: respiratory syncytial virus (RSV); assay: Titration by TCID50 assay; assay type: cell-based; conditions: FIG. 3b
[4] = system: respiratory syncytial virus (RSV); assay: Dose-response (plaque) assay; assay type: cell-based; conditions: FIG. 4b
SARS-CoV-2 = assay type: cell-based
[5] = system: herpes simplex virus serotype two (HSV-2); assay: Dose-response (plaque) assay; assay type: cell-based; conditions: FIG. 4a
[6] = system: herpes simplex virus serotype two (HSV-2); assay: Virucidal assay; assay type: cell-based; conditions: FIG. 5
[7] = system: herpes simplex virus serotype two (HSV-2); assay: Time of addition study; assay type: cell-based; conditions: FIG. 7
[8] = with cucurbit[7]uril; cited from earlier work

O=C1N2CN3C(=O)N4CN5C(=O)N6CN7C(=O)N8CN9C(=O)N%10CN%11C(=O)N%12CN%13C(=O)N%14CN%15C(=O)N%16CN1C1C2N2CN%17C(=O)N(CN%18C(=O)N(CN%19C(=O)N(CN%20C(=O)N(CN%21C(=O)N(CN%22C(=O)N(CN%23C(=O)N(CN1C2=O)C%16C%15%23)C%14C%13%22)C%12C%11%21)C%10C9%20)C8C7%19)C6C5%18)C4C3%17 (stereo not shown) [cucurbit[8]uril, Cucurbit[8]uril]
viral titre reduction [1]: lack of viral titre reduction
DNA detected following viral exposure, DNAse and PCR amplification [2]: No DNA was detected
antiviral effect [3]: ineffective

O=C1N2CN3C(=O)N4CN5C(=O)N6CN7C(=O)N8CN9C(=O)N%10CN%11C(=O)N%12CN1C1C2N2CN%13C(=O)N(CN%14C(=O)N(CN%15C(=O)N(CN%16C(=O)N(CN%17C(=O)N(CN1C2=O)C%12C%11%17)C%10C9%16)C8C7%15)C6C5%14)C4C3%13 (stereo not shown) [cucurbit[6]uril]
viral titre reduction [1]: lack of viral titre reduction
DNA detected following viral exposure, DNAse and PCR amplification [2]: DNA was detected
antiviral effect [3]: ineffective

cucurbit[7]uril
EC50 [4]: 1070 µg/mL
reduction in viral titre ([1]; 20-50 mg/mL): approximately 5 log
antiviral efficacy (SARS-CoV-2): largely ineffective
antiviral efficacy (SARS-CoV-2; 50 mg/mL): highly effective
EC50 [5]: 1270 µg/mL
mode of action (virucidal or virustatic) [6]: virucidal
viral inhibition ([7]; added after the virus has been exposed to the cells (post-infection)): no viral inhibition
antiviral effect ([7]; added directly to the virus before infection ('during infection')): an antiviral effect was observed
viral inhibition ([7]; removed prior to viral introduction (pre-treatment)): no viral inhibition

NC12CC3CC(CC(C3)C1)C2 [ADA, 1-Adamantylamine]
binding affinity [8]: 1.7+/−0.8×10^14 M^−1
